Experimental data reported in ChEMBL document CHEMBL1130483, “The synthesis and evaluation of functionalized estratropones: Potent inhibitors of tubulin polymerization” (Bioorg Med Chem Lett, 1997).

These compounds were tested against Tubulin (Bos taurus, UniProt Q6B856+Q862L2+Q862F3) (assay: Compound was evaluated for inhibition of tubulin polymerization using purified bovine brain tubulin, activity expressed as IC50).
Type: functional, tissue-based

First: C[C@]12CC[C@@H]3c4cc(O)c(=O)ccc4CC[C@H]3[C@@H]1CC[C@@H]2O
Second: C[C@]12CC[C@@H]3c4ccc(=O)c(O)cc4CC[C@H]3[C@@H]1CC[C@@H]2O
The IC50 of the first is 1.5-fold lower: 14.9 µM for the first, 22.8 µM for the second.

First: C/N=c1/cc2c(ccc1O)[C@H]1CC[C@]3(C)[C@@H](O)CC[C@H]3[C@@H]1CC2
Second: C/N=c1\ccc2c(cc1O)CC[C@@H]1[C@@H]2CC[C@]2(C)[C@@H](O)CC[C@@H]12
The IC50 of the first is 3.1-fold lower: 19.4 µM for the first, 60.7 µM for the second.

Going from CN(C)c1ccc2c(cc1=O)CC[C@@H]1[C@@H]2CC[C@]2(C)[C@@H](O)CC[C@@H]12 to CN(C)c1cc2c(ccc1=O)[C@H]1CC[C@]3(C)[C@@H](O)CC[C@H]3[C@@H]1CC2, the IC50 rises from 14.3 µM to 46.8 µM (3.3-fold).

First: C[C@]12CC[C@@H]3c4ccc(=O)c(N)cc4CC[C@H]3[C@@H]1CC[C@@H]2O
Second: C[C@]12CC[C@@H]3c4cc(N)c(=O)ccc4CC[C@H]3[C@@H]1CC[C@@H]2O
The IC50 of the first is 1.8-fold lower: 9.2 µM for the first, 16.5 µM for the second.

C[C@]12CC[C@@H]3c4ccc(=N)c(O)cc4CC[C@H]3[C@@H]1CC[C@@H]2O and C=Cc1ccc2c(cc1=O)CC[C@@H]1[C@@H]2CC[C@]2(C)[C@@H](O)CC[C@@H]12 are within 1.5-fold of each other in IC50: 14.4 µM for the first, 14.2 µM for the second.

C[C@]12CC[C@@H]3c4ccc([N+](=O)[O-])c(=O)cc4CC[C@H]3[C@@H]1CC[C@@H]2O showed an IC50 of 52 µM.
